Measured values from US20220265817A1, “THERAPEUTIC COMPOSITIONS AND METHODS FOR TREATING HEPATITIS B” (priority 2017, published 2022).
Where “and” joins values, the source holds several entries; their conditions need not be identical. Equal entries are not always repeated. Where two headings read alike, the source gives them in different places.

Assays:
[1] = system: HBV rcDNA in AML12-HBV10 cells; assay: AML12-HBV10 cell culture system, rcDNA quantitation using bDNA assay, MacSynergy II; assay type: cell-based, mouse hepatocyte cell line; conditions: Hepatitis B virus, AML12HBV10, in Mus musculus, 48 h, read-out: Inhibitor EC50
Procedure: In vitro combination studies were conducted using the method of Prichard and Shipman (Prichard M N, and Shipman C Jr., Antiviral Research, 1990, 14 (4-5), 181-205; and Prichard M N, et. al., MacSynergy II). The AML12-HBV10 cell line was developed as described in Campagna et al. (Campagna et. al., J. Virology, 2013, 87(12), 6931-6942). It is a mouse hepatocyte cell line stably transfected with the HBV genome, and which can express HBV pregenomic RNA and support HBV rcDNA (relaxed circular DNA) synthesis in a tetracycline-regulated manner. AML12-HBV10 cells were plated in 96 well tissue-culture treated microtiter plates in DMEM/F12 medium supplemented with 10% fetal bovine serum +1% penicillin-streptomycin without tetracycline and incubated in a humidified incubator at 37° C. and 5% CO2 overnight. […] The two inhibitors were tested both singly as well as in combinations in a checkerboard fashion such that each concentration of inhibitor A was combined with each concentration of inhibitor B to determine their combination effects on inhibition of rcDNA production. Following a 48 hour-incubation, the level of rcDNA present in the inhibitor-treated wells was measured using a bDNA assay (Affymetrix) with HBV specific custom probe set and manufacturer's instructions. […] Concurrently, the effect of inhibitor combinations on cell viability was assessed using replicate plates that were used to determine the ATP content as a measure of cell viability using the cell-titer glo reagent (Promega) as per manufacturer's instructions.

[2] = system: hepatitis B virus (HBV); assay: Humanized liver chimeric mouse model of chronic HBV infection, serum HBsAg by EIA; assay type: in vivo; conditions: mean ± SEM
Procedure: This work was conducted in a well-established humanized liver chimeric mouse model of chronic hepatitis B virus (HBV) infection (Tsuge et al., Hepatology, 42(5), 1046-54 (2005)). A persistent level of HBV infection was established in the animals prior to the treatment phase which started at Day 0.
The anti-HBV effects were assessed based on serum HBsAg levels using the GS HBsAg EIA 3.0 enzyme linked immunosorbent assay kit from Bio-Rad Laboratories as per manufacturer instructions; and serum HBV DNA levels measured from total extracted DNA using a quantitative PCR assay (primer/probe sequences from Tanaka et al., Journal of Medical Virology, 72, 223-229 (2004)).

[3] = system: D type HBV in primary human hepatocytes; assay: microbe, parasite or virus in culture; assay type: cell-based; conditions: for EC50: determined in an earlier separate experiment
Procedure: The mouse liver perfusion was applied to isolate PHHs. The isolated hepatocytes were further purified by Percoll. The cells were resuspended with culture media and seeded into the 96-well plates (6×10^4 cell/well) or 48-well plates (1.2×10^5 cell/well). The PHHs were infected with a D type HBV one day post seeding (day 1).
On day 2, the test compounds were diluted and added into the cell culture plates. The culture media containing the compounds were refreshed every other day. The cell culture supernatants were collected on day 8 for the HBV DNA and antigen determinations.
The compounds were tested at 7 concentrations, 3-fold dilution, in triplicate.
Two compounds were tested at 5×5 matrix, in triplicate plates.
DNA in the culture supernatants harvested on days 8 were isolated with QIAamp 96 DNA Blood Kit (Qiagen-51161). For each sample, 100 μl of the culture supernatants was used to extract DNA. The DNA was eluted with 100 μl, 150 μl or 180 μl of AE. HBV DNA in the culture supernatants was quantified by qPCR. The combination effect was analyzed by the MacSynergy software. The primers are described below.

With `C=C1[C@H](CO)[C@@H](O)C[C@@H]1n1cnc2c(=O)[nH]c(N)nc21` [Entecavir] as the molecule, how does the EC50 [1] read?
The EC50 was 0.012 µM.

What about the “Serum HBsAg” value ([2]; Day 0 (start of treatment)) of the same molecule?
Its value is 2649 ± 282 IU/mL.

And the “Serum HBsAg” value ([2]; Day 21, Compound 3 oral 100 mg/kg twice daily, SIRNA-NP iv 3 mg/kg every 2 weeks, ETV oral 1.2 μg/kg daily, pegIFN α-2a sc 30 μg/kg twice a week)?
Its value is 2975 ± 629 IU/mL.

Which “AVERAGE % INHIBITION HBV DNA” value ([3]; 3 replicates, Compound 24 0.00 nM, TDF nM: 10.00, 3.33, 1.11, 0.37, 0.12) does the source give for `CC(C)OC(=O)OCOP(=O)(CO[C@H](C)Cn1cnc2c(N)ncnc21)OCOC(=O)OC(C)C.O=C(O)/C=C/C(=O)O` [TDF, tenofovir disoproxil fumarate, reference compound] here?
The value was −6.24% and −1.16% and −15.4% and 3.15%.

What does the source list for `O=C(Nc1ccc(F)c(F)c1)c1cc(S(=O)(=O)NC2CCCC2)ccc1F` [Compound 22]?
inhibition at 0.061728 µM ([3]; Hepatitis B virus, Hepatocyte, TAF 0.00 nM, COMPOUND 22 61.728 nM): 2.38%; inhibition at 0.18519 µM ([3]; Hepatitis B virus, Hepatocyte, TAF 0.00 nM, COMPOUND 22 185.19 nM, read-out: AVERAGE % INHIBITION): -3.33%; inhibition at 0.55556 µM ([3]; Hepatitis B virus, Hepatocyte, TAF 0.00 nM, COMPOUND 22 555.56 nM, read-out: AVERAGE % INHIBITION): 8.01%; inhibition at 1.6667 µM ([3]; Hepatitis B virus, Hepatocyte, TAF 0.00 nM, COMPOUND 22 1666.7 nM): 28%; inhibition at 5 µM ([3]; Hepatitis B virus, Hepatocyte, TAF 0.00 nM, COMPOUND 22 5000 nM, read-out: AVERAGE % INHIBITION): 54.7%; inhibition at 0.06173 µM ([3]; Hepatitis B virus, Hepatocyte, read-out: AVERAGE % […] DNA, COMPOUND 22 61.73 nM alone): -11.8%; inhibition at 0.18519 µM ([3]; Hepatitis B virus, Hepatocyte, read-out: AVERAGE % […] DNA, COMPOUND 22 185.19 nM alone, read-out: AVERAGE % INHIBITION HBV DNA): -9.12%; inhibition at 0.55556 µM ([3]; Hepatitis B virus, Hepatocyte, read-out: AVERAGE % […] DNA, COMPOUND 22 555.56 nM alone, read-out: AVERAGE % INHIBITION HBV DNA): -12.7%; inhibition at 1.66667 µM ([3]; Hepatitis B virus, Hepatocyte, read-out: AVERAGE % […] DNA, COMPOUND 22 1666.67 nM alone): 17.9%; inhibition at 5 µM ([3]; Hepatitis B virus, Hepatocyte, read-out: AVERAGE % […] DNA, COMPOUND 22 5000.00 nM alone, read-out: AVERAGE % INHIBITION HBV DNA): 63.1%; EC50 ([3]; Hepatitis B virus, Hepatocyte, HBV DNA, read-out: Inhibitor EC50): 1.02 µM; EC50 ([3]; Hepatitis B virus, Hepatocyte, PHH, read-out: Inhibitor B EC50 HBV DNA): 1.02 µM
